According to PubChem BioAssay AID1918995 (Molecular Pharmacology Branch, DTP, NCI, 2023):

Test system: 324938-238-R-J1-PDC complex spheroid growth, % test/control
Experiment: Anticancer human tumor 324938-238-R-J1-PDC patient-derived bladder carcinoma cell line growth inhibition [AhR]
Settings: for IC50: curve of first compound; for viability, T/C: stronger effect = lower value
Description: Multicellular complex tumor spheroid response to aryl hydrocarbon receptor antagonists in combination with a variety of drugs and investigational agents in selected tumor cell lines
The current study was undertaken to assess response to aryl hydrocarbon receptor antagonists in combination with standard-of-care drugs and investigational agents in solid tumor complex spheroid models. Complex spheroids include a stromal component modeled by human endothelial cells (HUVEC) and fibroblasts modeled by human mesenchymal stem cells (MSCs). The concentration ranges selected for each drug and investigational agent were based upon clinically achievable concentrations if the clinical Cmax of the agent was known.
Compounds. The drugs and investigational agents: BAY 2416964 (NSC825713), GNF351 (NSC835774), CH-223191 (NSC835775), CPI-455 (NSC825282), aza-TdCyd (NSC777586), decitabine (NSC127716), belinostat (NSC758774), entinostat (NSC756642), pevonedistat (NSC761192), tazemetostat (NSC777109), talazoparib (NSC765396), olaparib (NSC753686), selinexor (NSC780203), nedisertib (M3814, NSC802822), bortezomib (NSC756655), venetoclax (NSC766270), doxorubicin (NSC123127), elimusertib (BAY189344, NSC800525), ceralasertib (AZD6738, NSC777638), TAK-243 (NSC785004), alisertib (NSC759677), etoposide (NSC141540), topotecan (NSC609699), eribulin (NSC707389), gemcitabine (NSC613327), carboplatin (NSC241240), cisplatin (NSC119875), and SN-38 (NSC673596) were obtained from the National Cancer Institute (NCI) Developmental Therapeutics Program Chemical Repository (32). The FDA-approved anticancer drug set is available from the Developmental Therapeutics Program at https://dtp.cancer.gov/organization/dscb/obtaining/available plates.htm. […] The stock solutions were prepared in dimethyl sulfoxide (DMSO, Sigma-Aldrich, St. Louis, MO, cat. D2650), except for the platinum compounds which were prepared in saline (Quality Biological, Gaithersburg, MD, cat. 114-055-101), at 800-fold the tested concentration and stored at -70 degrees C prior to their use. All drugs and investigational agents were tested over a range starting from a high concentration at or near the clinical Cmax and decreasing in half-log increments. If the clinical Cmax for an agent had not been determined, the highest concentration tested was 10 microM (Table 1).
Cell Culture. All cells were maintained in an incubator at 37 degrees C and 5% CO2 with 95% humidity. The PDC lines were cultured according to standard operating procedures established by the NCI PDMR (https://pdmr.cancer.gov). Briefly, all PDCs were thawed and cultured in Matrigel-coated flasks prepared with a working solution of 1X Ham's F-12 nutrient mix, without supplementation (Invitrogen, Waltham, MA, cat. 11765054), 100 U/mL penicillin-streptomycin (Invitrogen, cat. 15140122), and 2.5% Matrigel (Corning Inc., Corning, NY, cat. 354248) for the first three passages. All PDCs were cultured in complete DMEM/F-12 media containing advanced DMEM/F-12 (Invitrogen, cat. 12634028), 4.9% defined fetal bovine serum, heat inactivated (HyClone Laboratories Inc., Logan, UT, cat. SH30070.03HI), 389 ng/mL hydrocortisone (Sigma-Aldrich, cat. H4001), 9.7 ng/mL human EGF recombinant protein (Invitrogen, cat. PHG0313), 23.4 microg/mL adenine (Sigma-Aldrich, cat. A2786), 97.3 U/mL penicillin-streptomycin (Invitrogen, cat. 15140122), 1.9 mM L-glutamine (Invitrogen, cat. 25030081), and 9.7 microM Y-27632 dihydrochloride (Tocris Bioscience, Bristol, United Kingdom, cat. 1254). The PDCs were cultured in complete DMEM/F12 media without 10 microM Y-27632 dihydrochloride for at least two passages prior to the screen. The established cell lines NCI-H1341 and […] were cultured in DMEM/F-12, HEPES (Invitrogen, cat. 11330032), 5% defined fetal bovine serum (HyClone Laboratories Inc., cat. SH30070.03), ITS premix universal culture supplement [insulin (5 microg/mL), transferrin (5 microg/mL), and selenious acid (5 ng/mL)] […]
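Further: spheroids exposed to agents for seven days before viability read.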

COc1cc(C2c3cc4c(cc3C(OC3OC5COC(C)OC5C(O)C3O)C3COC(=O)C23)OCO4)cc(OC)c1O (stereo not given) + CC(CO)NC(=O)c1cc(-c2ccc(Cl)cc2)nn(-c2cnn(C)c2)c1=O
IC50 (second compound 0.1 µM): 351 nM | IC50 (second compound 0.316 µM): 427 nM | IC50 (second compound 1 µM): 441 nM | IC50 (second compound 3.16 µM): 243 nM | IC50 (second compound 10 µM): 171 nM | viability, T/C (second compound 0.1 µM, first compound 0.0316 µM): 92.8% | viability, T/C (second compound 0.1 µM, first compound 0.1 µM): 96% | viability, T/C (second compound 0.1 µM, first compound 0.316 µM): 52.4% | viability, T/C (second compound 0.1 µM, first compound 1 µM): 30.1% | viability, T/C (second compound 0.1 µM, first compound 3.16 µM): 26.8% | viability, T/C (second compound 0.1 µM, first compound 10 µM): 21.3% | viability, T/C (second compound 0.316 µM, first compound 0.0316 µM): 101% | viability, T/C (second compound 0.316 µM, first compound 0.1 µM): 90.3% | viability, T/C (second compound 0.316 µM, first compound 0.316 µM): 56.9% | viability, T/C (second compound 0.316 µM, first compound 1 µM): 30.3% | viability, T/C (second compound 0.316 µM, first compound 3.16 µM): 28.6% | viability, T/C (second compound 0.316 µM, first compound 10 µM): 23.4% | viability, T/C (second compound 1 µM, first compound 0.0316 µM): 95.6% | viability, T/C (second compound 1 µM, first compound 0.1 µM): 94.9% | viability, T/C (second compound 1 µM, first compound 0.316 µM): 58.2% | viability, T/C (second compound 1 µM, first compound 1 µM): 30.2% | viability, T/C (second compound 1 µM, first compound 3.16 µM): 31.5% | viability, T/C (second compound 1 µM, first compound 10 µM): 21.7% | viability, T/C (second compound 3.16 µM, first compound 0.0316 µM): 70.6% | viability, T/C (second compound 3.16 µM, first compound 0.1 µM): 73.9% | viability, T/C (second compound 3.16 µM, first compound 0.316 µM): 43.4% | viability, T/C (second compound 3.16 µM, first compound 1 µM): 30.8% | viability, T/C (second compound 3.16 µM, first compound 3.16 µM): 28.8% | viability, T/C (second compound 3.16 µM, first compound 10 µM): 22.7% | viability, T/C (second compound 10 µM, first compound 0.0316 µM): 66.7% | viability, T/C (second compound 10 µM, first compound 0.1 µM): 57% | viability, T/C (second compound 10 µM, first compound 0.316 µM): 41.2% | viability, T/C (second compound 10 µM, first compound 1 µM): 36.5% | viability, T/C (second compound 10 µM, first compound 3.16 µM): 32.7% | viability, T/C (second compound 10 µM, first compound 10 µM): 23.9%
